From patent US12318381B2, “Treatment for non-alcoholic fatty liver disease” (1GLOBE BIOMEDICAL CO., LTD., priority 2018, dated 2025) come the findings set out here.

The test relates to human HepG2 liver cells. Put plainly: Intracellular fat content in palmitoleic acid-treated HepG2 cells (AdipoRed/Hoechst 33258 double staining, fluorometry). The class given is cell-based. Conditions: for palmitoleic acid-induced increase of intracellular triglyceride content: HepG2, 0.8 mM palmitoleic acid in EMEM; for inhibitory effect on fat accumulation as compared to Compound 13-3: HepG2, 0.8 mM palmitoleic acid. The procedure: The effects on triglyceride accumulation from Compound 13-3-1, Compound 13-3-2, Compound 13-3-3, Compound 13-3-5, Compound 13-3-6, Compound 13-3-7, Compound 18-2, Compound 13-3-10 and Compound 13-3-11, as exemplary compounds of the invention, were tested. Human HepG2 liver cells were incubated with 0.8 mM palmitoleic acid in EMEM medium for 24 hours in the presence of 0.1 μM compounds of the invention or control vehicle, DMSO. Subsequently, the cells were washed with PBS and the intracellular fat content was measured by AdipoRed/Hoechst 33258 double staining, which was assessed by flourometry.
And the effects of Compound 001, Compound 004, Compound 006, Compound 013, Compound 132, Compound 133 and Compound 134, as further exemplary compounds of the invention, were also tested. Human HepG2 liver cells were incubated with 0.8 mM palmitoleic acid in EMEM medium for 48 hours in the presence of 0.1 μM compounds of the invention or control vehicle, DMSO. Subsequently, the cells were washed with PBS and the intracellular fat content was measured by AdipoRed/Hoechst 33258 double staining, which was assessed by flourometry.

Setting [1] is: 48 hours, 0.1 μM compound vs DMSO (FIG. 1C).
Where [2] appears, read: 24 hours, 0.1 μM compound vs DMSO (FIG. 1B).

Regarding `[2H]C([2H])(NC(=O)c1c(C)[nH]c(/C=C2\C(=O)Nc3ccc(-c4csc(-c5ccccc5)n4)cc32)c1C)C([2H])([2H])N(CC)CC` [Compound 001], the “palmitoleic acid-induced increase of intracellular triglyceride content” value (shortened to “palmitoleic acid-induced increase”) under setting [1] is reported as “markedly suppressed”. For the same compound, the “inhibitory effect on fat accumulation as compared to Compound 13-3” value (shortened to “inhibitory effect … compared to Compound 13-3”) (48 hours, 0.1 μM (FIG. 1C)) was “comparable or greater”.
In the case of `[2H]C([2H])([2H])C([2H])([2H])N(C([2H])([2H])C([2H])([2H])[2H])C([2H])([2H])C([2H])([2H])NC(=O)c1c(C)[nH]c(/C=C2\C(=O)Nc3ccc(-c4csc(-c5ccccc5)n4)cc32)c1C` [Compound 004], the “palmitoleic acid-induced increase” value under setting [1] is “markedly suppressed”. Also, the “inhibitory effect … compared to Compound 13-3” value (48 hours, 0.1 μM (FIG. 1C)) was “comparable or greater”.
The like results for `[2H]c1c([2H])c([2H])c(-c2nc(-c3ccc4c(c3)/C(=C/c3[nH]c(C)c(C(=O)NC([2H])([2H])C([2H])([2H])N(C([2H])([2H])C([2H])([2H])[2H])C([2H])([2H])C([2H])([2H])[2H])c3C)C(=O)N4)cs2)c([2H])c1[2H]` [Compound 006] were, in that order, “markedly suppressed” and “comparable or greater”.
Take `CCN(CC)CCNC(=O)c1c(C)[nH]c(/C=C2\C(=O)Nc3ccc(-c4csc(Nc5ccccc5)n4)cc32)c1C` [Compound 13-3-1]: under setting [2], the “palmitoleic acid-induced increase” value is “markedly suppressed”. For the same compound, for the setting “24 hours, 0.1 μM (FIG. 1B)”, the “inhibitory effect … compared to Compound 13-3” value was “comparable or greater”.
The like results for `CCN(CC)CCNC(=O)c1c(C)[nH]c(/C=C2\C(=O)Nc3ccc(-c4csc(N5CCCCC5)n4)cc32)c1C` [Compound 13-3-2] were, in that order, “markedly suppressed” and “comparable or greater”.
The corresponding values for `CCN(CC)CCNC(=O)c1c(C)[nH]c(/C=C2\C(=O)Nc3ccc(C(=O)Nc4csc([N+](=O)[O-])n4)cc32)c1C` [Compound 13-3-3] are “markedly suppressed” and “comparable or greater”.
The like results for `CCN(CC)CCNC(=O)c1c(C)[nH]c(/C=C2\C(=O)Nc3cccc(-c4cnc(OC)nc4)c32)c1C` [Compound 13-3-5] were, in that order, “markedly suppressed” and “comparable or greater”.
Consider `CCN(CC)CCC(=O)N1CCN(c2ccc(/C=C3\C(=O)Nc4ccc(-c5csc(-c6ccccc6)n5)cc43)cc2)CC1` [Compound 13-3-6], for which the “palmitoleic acid-induced increase” value under setting [2] is reported as “markedly suppressed”. The “inhibitory effect … compared to Compound 13-3” value (24 hours, 0.1 μM (FIG. 1B)) is recorded as “comparable or greater”.
The like results for `CCN(CC)CCNC(=O)CCc1c(C)[nH]c(/C=C2\C(=O)Nc3ccc(-c4csc(-c5ccccc5)n4)cc32)c1C` [Compound 13-3-7] were, in that order, “markedly suppressed” and “comparable or greater”.
The corresponding values for `CCN(CC)CCNC(=O)c1c(C)[nH]c(/C=C2\C(=O)Nc3cnc(-c4csc(-c5ccccc5)n4)cc32)c1C` [Compound 13-3-10] are “markedly suppressed” and “comparable or greater”.
The like results for `CCN(CC)CCNC(=O)c1c(C)[nH]c(/C=C2\C(=O)Nc3ccc(C4CCN(c5ccccc5)CC4)cc32)c1C` [Compound 13-3-11] were, in that order, “markedly suppressed” and “comparable or greater”.
As for `[2H]c1c([2H])c([2H])c(-c2nc(-c3ccc4c(c3)/C(=C/c3[nH]c(C)c(C(=O)NC([2H])([2H])C([2H])([2H])N(CC)CC)c3C)C(=O)N4)cs2)c([2H])c1[2H]` [Compound 013], under setting [1], the “palmitoleic acid-induced increase” value is on record as “markedly suppressed”. In addition, the “inhibitory effect … compared to Compound 13-3” value (48 hours, 0.1 μM (FIG. 1C)) was “comparable or greater”.
On to `Cc1[nH]c(/C=C2\C(=O)Nc3ccc(-c4csc(-c5cccnc5)n4)cc32)c(C)c1C(=O)N1CCN(C)CC1` [Compound 18-2], for which the “palmitoleic acid-induced increase” value under setting [2] is recorded as “markedly suppressed”. For the same compound, under “24 hours, 0.1 μM (FIG. 1B)”, the “inhibitory effect … compared to Compound 13-3” value is reported as “comparable or greater”.
For `[2H]c1c([2H])c([2H])c(-c2nc(-c3ccc4c(c3)/C(=C/c3[nH]c(C)c(C(=O)NCCN(CC)CC)c3C)C(=O)N4)cs2)c([2H])c1[2H]` [Compound 132], the “palmitoleic acid-induced increase” value under setting [1] is reported as “markedly suppressed”. Where the note is “48 hours, 0.1 μM (FIG. 1C)”, the “inhibitory effect … compared to Compound 13-3” value is given as “comparable or greater”.
The like results for `[2H]c1c([2H])c([2H])c(-c2nc(-c3ccc4c(c3)/C(=C/c3[nH]c(C)c(C(=O)NCCN(C([2H])([2H])C([2H])([2H])[2H])C([2H])([2H])C([2H])([2H])[2H])c3C)C(=O)N4)cs2)c([2H])c1[2H]` [Compound 133] were, in that order, “markedly suppressed” and “comparable or greater”.
The corresponding values for `[2H]C([2H])([2H])C([2H])([2H])N(CCNC(=O)c1c(C)[nH]c(/C=C2\C(=O)Nc3ccc(-c4csc(-c5ccccc5)n4)cc32)c1C)C([2H])([2H])C([2H])([2H])[2H]` [Compound 134] are “markedly suppressed” and “comparable or greater”.
